60 molecules from patent US11608341B2, “Substituted tetrahydropyrazolo[3,4-d]pyrimidines and tetrahydropyrazolo[4,3-d]pyrimidines as C5A receptor modulators” (Idorsia Pharmaceuticals Ltd., priority 2018, dated 2023) can be followed below.

pIC50: −log10 of the molar value.

For this test, the target named is T1, C5AR1 (Homo sapiens, UniProt P21730).
T1 construct: host or cells: CHO-K1
T1 sequence (P21730 1-350): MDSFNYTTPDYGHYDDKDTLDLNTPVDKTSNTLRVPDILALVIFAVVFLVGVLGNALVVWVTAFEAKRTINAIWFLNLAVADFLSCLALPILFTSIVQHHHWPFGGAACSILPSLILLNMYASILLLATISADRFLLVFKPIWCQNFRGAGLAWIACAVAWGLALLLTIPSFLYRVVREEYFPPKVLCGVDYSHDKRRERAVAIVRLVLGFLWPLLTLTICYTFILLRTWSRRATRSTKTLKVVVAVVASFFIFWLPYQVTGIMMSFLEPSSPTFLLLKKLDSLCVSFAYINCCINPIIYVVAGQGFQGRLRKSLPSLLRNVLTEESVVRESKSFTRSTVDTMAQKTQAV
The test is described as follows: In vitro assay: antagonism of C5a-induced beta-arrestin recruitment (PathHunter) in CHO-K1 C5AR1 beta-arrestin cell line. Conditions: antagonistic activity, 1-10 nM C5a agonist, geometric mean where several measurements, read-out: C5aR IC50. It is filed as cell-based. Summed up: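 Antagonist or DMSO added first, then C5a (1-10 nM, added at 6-fold end concentration), 1.5 h at 37 °C. PathHunter detection reagent was added for 45 min at RT before plate reading. IC50s come from antagonist serial dilutions in nmol/l and are geometric means of several measurements.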
(In general: Arrestin recruitment assays detect the binding of arrestin to an activated receptor.)

The term pIC50 denotes the IC50 on a negative log10 scale, so that one unit is a factor of ten. As for `COC1CN(CCn2cc3c(n2)N(Cc2ccccc2C(F)(F)F)C(=O)N(C2CCN(c4c(C)cccc4F)CC2)C3)C1` [Example 34], the pIC50 is 7.66. With `Cc1cccc(F)c1N1CCC(N2Cc3cn(C)nc3N(Cc3nc(Cl)ccc3C(F)(F)F)C2=O)CC1` [Example 35], the pIC50 was 8.05. For `Cc1cccc(F)c1N1CCC(N2Cc3cn(C)nc3N(Cc3nc(F)ccc3C(F)(F)F)C2=O)CC1` [Example 36], the pIC50 was 8.15. The result for `Cc1ccc(C(F)(F)F)c(CN2C(=O)N(C3CCN(c4c(C)cccc4F)CC3)Cc3cn(C)nc32)n1` [Example 37] reads 7.28; that for `COc1ccc(C(F)(F)F)c(CN2C(=O)N(C3CCN(c4c(C)cccc4F)CC3)Cc3cn(C)nc32)n1` [Example 38], 7.92; that for `Cc1cccc(F)c1N1CCC(N2Cc3cn(CC(C)CO)nc3N(Cc3ccccc3C(F)(F)F)C2=O)CC1` (stereo not drawn) [Example 39], 7.80. The result for `Cc1cccc(F)c1N1CCC(N2Cc3cn(CC(O)CO)nc3N(Cc3ccccc3C(F)(F)F)C2=O)CC1` (stereo not drawn) [Example 40] reads 7.57; that for `COC[C@H](O)Cn1cc2c(n1)N(Cc1ccccc1C(F)(F)F)C(=O)N(C1CCN(c3c(C)cccc3F)CC1)C2` [Example 41], 7.77. Turning to `COC(=O)C(Cl)Cn1cc2c(n1)N(Cc1ccccc1C(F)(F)F)C(=O)N(C1CCN(c3c(C)cccc3F)CC1)C2` (stereo not drawn) [Example 42], the pIC50 is 7.62. In the case of `Cc1cccc(F)c1N1CCC(N2Cc3cn(CC(C)C#N)nc3N(Cc3ccccc3C(F)(F)F)C2=O)CC1` (stereo not drawn) [Example 43], the pIC50 was 7.74.

Regarding `Cc1cccc(F)c1N1CCC(N2Cc3cn(C)nc3N(Cc3ccccc3C(F)(F)F)C2=O)C1` (stereo not drawn) [Example 44], the pIC50 is 7.46.

Take `Cc1cccc(F)c1N1CCC(N2Cc3cn(CC(C)CN)nc3N(Cc3ccccc3C(F)(F)F)C2=O)CC1` (stereo not drawn) [Example 45]: the pIC50 was 6.69.

`COC[C@@H](O)Cn1cc2c(n1)N(Cc1ccccc1C(F)(F)F)C(=O)N(C1CCN(c3c(C)cccc3F)CC1)C2` [Example 46]: the pIC50 was 7.68.

`Cc1cccc(C)c1N1CCC(N2Cc3cn(C)nc3N(Cc3ccccc3C(F)(F)F)C2=O)CC1` [Example 47]: the pIC50 was 7.72. For the molecule `COc1cccc(C)c1N1CCC(N2Cc3cn(C)nc3N(Cc3ccccc3C(F)(F)F)C2=O)CC1` [Example 48], the pIC50 is 7.74. Turning to `Cn1cc2c(n1)N(Cc1ccccc1C(F)(F)F)C(=O)N(C1CCN(c3c(F)cccc3C#N)CC1)C2` [Example 49], the negative-log IC50 (pIC50) was 7.92. Next, `Cc1cccc(F)c1N1CCC(N2Cc3cn(C)nc3N(Cc3nc(N(C)C)ccc3C(F)(F)F)C2=O)CC1` [Example 50]: 7.07; `CNc1ccc(C(F)(F)F)c(CN2C(=O)N(C3CCN(c4c(C)cccc4F)CC3)Cc3cn(C)nc32)n1` [Example 51]: 7.34. With `Cc1ccnc(F)c1N1CCC(N2Cc3cn(C)nc3N(Cc3ccccc3C(F)(F)F)C2=O)CC1` [Example 52], the pIC50 was 7.14. Take `COC(=O)C(Cn1cc2c(n1)N(Cc1ccccc1C(F)(F)F)C(=O)N(C1CCN(c3c(C)cccc3F)CC1)C2)N(C)C` (stereo not drawn) [Example 53]: the pIC50 was 7.34. The result for `COc1nccc(C)c1N1CCC(N2Cc3cn(C)nc3N(Cc3ccccc3C(F)(F)F)C2=O)CC1` [Example 54] reads 7.85.

Regarding `Cc1cccc(F)c1N1CC[C@@H](N2Cc3cn(C)nc3N(Cc3ccccc3C(F)(F)F)C2=O)C1` [Example 55], the pIC50 is 7.96.

For the molecule `Cc1cccc(F)c1N1CCC(N2Cc3cn(CC(CO)N(C)C)nc3N(Cc3ccccc3C(F)(F)F)C2=O)CC1` (stereo not drawn) [Example 56], the pIC50 is 7.04. In the case of `CNCCn1cc2c(n1)N(Cc1ccccc1C(F)(F)F)C(=O)N(C1CCN(c3c(C)cccc3F)CC1)C2` [Example 59], the pIC50 is 6.71. Regarding `Cc1cccc(F)c1N1CCC(N2Cc3cn(CCN(C)C)nc3N(Cc3ccccc3C(F)(F)F)C2=O)CC1` [Example 60], the pIC50 is 7.25.

Regarding `Cc1cccc(F)c1N1CCC(N2Cc3cn(C)nc3N(Cc3c(F)cccc3C(F)(F)F)C2=O)CC1` [Example 61], the pIC50 was 7.80. The result for `Cc1cccc(F)c1N1CCC(N2Cc3cn(CCN4CCCC4)nc3N(Cc3ccccc3C(F)(F)F)C2=O)CC1` [Example 62] reads 6.98.

As to `Cc1cccc(F)c1N1CCC(N2Cc3cn(CCN4CCCCC4)nc3N(Cc3ccccc3C(F)(F)F)C2=O)CC1` [Example 63], the pIC50 was 7.04. The result for `Cc1cccc(F)c1N1CCC(N2Cc3cn(CCN4CCOCC4)nc3N(Cc3ccccc3C(F)(F)F)C2=O)CC1` [Example 64] reads 7.68. The result for `Cc1cccc(F)c1N1CCC(N2Cc3cn(CCN4CCN(C)CC4)nc3N(Cc3ccccc3C(F)(F)F)C2=O)CC1` [Example 65] reads 6.92; that for `CC(=O)NCCn1cc2c(n1)N(Cc1ccccc1C(F)(F)F)C(=O)N(C1CCN(c3c(C)cccc3F)CC1)C2` [Example 66], 6.82. Regarding `Cc1cccc(F)c1N1CCC(N2Cc3cn(CCNC(=O)OC(C)(C)C)nc3N(Cc3ccccc3C(F)(F)F)C2=O)CC1` [Example 67], the pIC50 was 7.82. Next, `Cn1cc2c(n1)N(Cc1ccccc1C(F)(F)F)C(=O)N(C1CCN(c3ncccc3F)CC1)C2` [Example 68]: 6.50. `Cc1cccnc1N1CCC(N2Cc3cn(C)nc3N(Cc3ccccc3C(F)(F)F)C2=O)CC1` [Example 69]: the pIC50 was 7.42. Next, `COc1cccnc1N1CCC(N2Cc3cn(C)nc3N(Cc3ccccc3C(F)(F)F)C2=O)CC1` [Example 70]: 6.29; `Cc1cccc(F)c1N1CCC(N2Cc3cn(CCNC4CC4)nc3N(Cc3ccccc3C(F)(F)F)C2=O)CC1` [Example 71]: 7.62; `Cc1cccc(F)c1N1CCC(N2Cc3cn(CCN(C)C(C)C)nc3N(Cc3ccccc3C(F)(F)F)C2=O)CC1` [Example 72]: 7.37. `Cc1cccc(F)c1N1CCC(N2Cc3cn(CCN(C)C4CC4)nc3N(Cc3ccccc3C(F)(F)F)C2=O)CC1` [Example 73]: the pIC50 is 7.77.

For the molecule `COCCN(C)CCn1cc2c(n1)N(Cc1ccccc1C(F)(F)F)C(=O)N(C1CCN(c3c(C)cccc3F)CC1)C2` [Example 74], the pIC50 is 7.59. The result for `Cc1cccc(F)c1N1CCC(N2Cc3cn(C(C)C(N)=O)nc3N(Cc3ccccc3C(F)(F)F)C2=O)CC1` (stereo not drawn) [Example 75] reads 6.77.

In the case of `Cc1cccc(F)c1N1CCC(N2Cc3cn(C4COC4)nc3N(Cc3ccccc3C(F)(F)F)C2=O)CC1` [Example 77], the pIC50 is 8.00.

Consider `Cc1cccc(F)c1N1CCC(N2Cc3cn(C(C)C#N)nc3N(Cc3ccccc3C(F)(F)F)C2=O)CC1` (stereo not drawn) [Example 78], for which the pIC50 was 7.85.

For the molecule `Cc1cccc(F)c1N1CCC(N2Cc3cn(C(C)CN)nc3N(Cc3ccccc3C(F)(F)F)C2=O)CC1` (stereo not drawn) [Example 79], the pIC50 was 6.17.

With `Cc1cccc(F)c1N1CCC(N2Cc3cn(CC(C)N)nc3N(Cc3ccccc3C(F)(F)F)C2=O)CC1` (stereo not drawn) [Example 80], the pIC50 was 6.46. The result for `Cc1cccc(F)c1N1CCC(N2Cc3nn(C)nc3N(Cc3ccccc3C(F)(F)F)C2=O)CC1` [Example 81] reads 7.68; that for `Cc1cccc(F)c1N1CCC(N2Cc3cn(C4CCCCC4[N+](=O)[O-])nc3N(Cc3ccccc3C(F)(F)F)C2=O)CC1` (stereo not drawn) [Example 82], 6.92; that for `Cc1cccc(F)c1N1CCC(N2Cc3cn(C(C)(NC(=O)OC(C)(C)C)C(F)(F)F)nc3N(Cc3ccccc3C(F)(F)F)C2=O)CC1` (stereo not drawn) [Example 83], 7.12. For the molecule `Cc1cccc(F)c1N1CCC(N2Cc3cn(C(C)(C)C(N)=O)nc3N(Cc3ccccc3C(F)(F)F)C2=O)CC1` [Example 84], the pIC50 was 7.13. For `Cc1ccnc(C#N)c1N1CCC(N2Cc3cn(C)nc3N(Cc3ccccc3C(F)(F)F)C2=O)CC1` [Example 85], the pIC50 was 7.47. Next, `Cc1nccc(F)c1N1CCC(N2Cc3cn(C)nc3N(Cc3ccccc3C(F)(F)F)C2=O)CC1` [Example 86]: 6.64; `Cc1cccc(F)c1N1CCC(N2Cc3cn(C(C)(C)C#N)nc3N(Cc3ccccc3C(F)(F)F)C2=O)CC1` [Example 87]: 7.92; `Cc1cccc(F)c1N1CCC(N2Cc3cn(C(C)(C)CN)nc3N(Cc3ccccc3C(F)(F)F)C2=O)CC1` [Example 88]: 6.81. The result for `Cc1nc2c(o1)N(Cc1ccccc1C(F)(F)F)C(=O)N(C1CCN(c3c(C)cccc3F)CC1)C2` [Example 89] reads 7.27. Next, `Cc1nc2c(s1)N(Cc1ccccc1C(F)(F)F)C(=O)N(C1CCN(c3c(C)cccc3F)CC1)C2` [Example 90]: 6.82. On to `Cc1cccc(F)c1N1CCC(N2Cc3cn(C4CN(C(=O)OC(C)(C)C)C4)nc3N(Cc3ccccc3C(F)(F)F)C2=O)CC1` [Example 91], for which the pIC50 was 7.59.

As for `Cc1cccc(F)c1N1CCC(N2Cc3cn(C4CNC4)nc3N(Cc3ccccc3C(F)(F)F)C2=O)CC1` [Example 92], the pIC50 was 6.37. Next, `Cc1cccc(F)c1N1CCC(N2Cc3cn(C4CCN(C(=O)OC(C)(C)C)C4)nc3N(Cc3ccccc3C(F)(F)F)C2=O)CC1` (stereo not drawn) [Example 93]: 7.77. Next, `Cc1cccc(F)c1N1CCC(N2Cc3cn(C4CCNC4)nc3N(Cc3ccccc3C(F)(F)F)C2=O)CC1` (stereo not drawn) [Example 94]: 6.14. Consider `COc1ccnc(OC)c1N1CCC(N2Cc3cn(C)nc3N(Cc3ccccc3C(F)(F)F)C2=O)CC1` [Example 95], for which the pIC50 was 6.90. The result for `COc1ncnc(C)c1N1CCC(N2Cc3cn(C)nc3N(Cc3ccccc3C(F)(F)F)C2=O)CC1` [Example 96] reads 6.31.
